Where two headings read alike, the source gives them in different places.
Legend:
hERG potassium channel [1] = molecular target: T1, hERG potassium channel (Homo sapiens, UniProt Q12809); assay: in vitro
α7 nAChRs = α7 nAChRs (Rattus norvegicus, UniProt Q05941); assay: In vitro competitive binding experiment with [125I] α-bgt as radioactive standard; parameters: species or system SD rats; details: 0.4 nM [125I] α-bgt, Cheng-Prusoff, mean of three measurements ± SD; read-out: Ki (nM), in vitro binding affinity to α7 nAChRs
hERG potassium channel [2] = molecular target: T1, hERG potassium channel; assay: In vitro hERG potassium channel inhibition experiment (conventional patch clamp, HEK293 cell line stably expressing hERG)
hERG potassium channel [3] = molecular target: T1, hERG potassium channel
[4] = Measurement of half lethal dosage LD50 (tail vein injection); assay type: in vivo, Kunming mice; details: both sexes, Kunming, mouse, in vivo, intravenous, mice, tail vein injection
Source text: (§1) There are many methods for calculating LD50, among which the weighted probit method created by Bliss and then developed by later researchers was the most accurate and rigorous, and was the standard LD50 calculation method recognized by researchers. This calculation method will be used herein to solve the LD50 value of the compound to be measured to the mice.

Kunming mice = assay: as above; assay type: in vivo; details: for Death Rate (%): tail vein
Source text: as §1

[5] = 5 min after administration; cited from earlier work
[6] = 5 min after the administration, cited from earlier work
[7] = IC50 (μM), hERG potassium current, Table 7 and text, n=3
[8] = hERG Potassium Channel IC50 (nM), Table 8

T1 sequence (Q12809 whole entry): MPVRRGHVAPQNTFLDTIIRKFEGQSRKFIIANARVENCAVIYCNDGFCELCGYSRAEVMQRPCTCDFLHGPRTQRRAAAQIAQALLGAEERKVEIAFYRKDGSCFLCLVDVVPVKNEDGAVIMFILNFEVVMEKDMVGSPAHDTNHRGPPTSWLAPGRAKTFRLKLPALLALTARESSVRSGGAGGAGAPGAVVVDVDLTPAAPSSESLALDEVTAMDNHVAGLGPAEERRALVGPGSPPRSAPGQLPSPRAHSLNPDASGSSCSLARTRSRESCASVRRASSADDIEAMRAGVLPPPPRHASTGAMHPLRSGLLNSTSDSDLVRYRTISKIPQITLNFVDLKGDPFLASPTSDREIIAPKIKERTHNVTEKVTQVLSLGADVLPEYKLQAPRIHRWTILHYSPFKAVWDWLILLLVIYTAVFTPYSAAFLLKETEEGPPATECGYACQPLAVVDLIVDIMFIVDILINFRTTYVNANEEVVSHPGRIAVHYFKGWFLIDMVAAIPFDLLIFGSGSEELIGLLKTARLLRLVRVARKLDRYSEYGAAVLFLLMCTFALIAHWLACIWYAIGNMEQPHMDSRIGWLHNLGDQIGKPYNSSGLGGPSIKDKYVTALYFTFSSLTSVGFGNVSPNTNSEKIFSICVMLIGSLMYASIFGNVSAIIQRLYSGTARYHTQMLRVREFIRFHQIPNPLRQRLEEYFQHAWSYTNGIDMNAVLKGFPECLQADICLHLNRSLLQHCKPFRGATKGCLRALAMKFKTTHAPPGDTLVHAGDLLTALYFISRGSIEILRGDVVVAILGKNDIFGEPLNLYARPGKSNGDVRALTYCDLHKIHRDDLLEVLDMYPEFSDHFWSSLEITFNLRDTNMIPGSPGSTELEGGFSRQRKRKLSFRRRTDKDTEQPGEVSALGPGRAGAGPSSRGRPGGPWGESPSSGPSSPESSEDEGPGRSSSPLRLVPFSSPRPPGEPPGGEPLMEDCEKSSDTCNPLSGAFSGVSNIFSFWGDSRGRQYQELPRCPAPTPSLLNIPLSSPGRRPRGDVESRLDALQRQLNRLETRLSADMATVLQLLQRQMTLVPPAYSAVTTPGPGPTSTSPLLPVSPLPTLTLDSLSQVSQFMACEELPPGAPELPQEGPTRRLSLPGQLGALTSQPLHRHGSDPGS
Sequence of α7 nAChRs (Q05941 23-502): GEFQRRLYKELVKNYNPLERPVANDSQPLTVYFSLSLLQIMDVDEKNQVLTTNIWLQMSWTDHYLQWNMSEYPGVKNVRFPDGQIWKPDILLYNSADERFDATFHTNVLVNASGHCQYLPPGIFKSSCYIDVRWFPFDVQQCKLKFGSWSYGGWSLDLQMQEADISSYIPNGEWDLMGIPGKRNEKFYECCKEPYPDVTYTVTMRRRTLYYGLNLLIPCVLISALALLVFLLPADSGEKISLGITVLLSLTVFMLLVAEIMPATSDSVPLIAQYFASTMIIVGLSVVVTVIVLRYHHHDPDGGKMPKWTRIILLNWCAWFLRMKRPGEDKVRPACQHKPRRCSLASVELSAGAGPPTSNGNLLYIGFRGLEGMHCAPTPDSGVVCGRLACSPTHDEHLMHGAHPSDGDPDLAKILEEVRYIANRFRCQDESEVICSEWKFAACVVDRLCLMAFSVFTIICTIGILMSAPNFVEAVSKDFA

COc1cc(N)c(Cl)cc1C(=O)NC1CCN(CCCOc2ccc(F)cc2)CC1OC (stereo not shown) [Cisapride, reference compound]
inhibition at 5 min, 0.001 µM (hERG potassium channel [1]): 8 ± 2% | inhibition at 5 min, 0.01 µM (hERG potassium channel [1]): 44 ± 1% | inhibition at 5 min, 0.1 µM (hERG potassium channel [1]): 84 ± 1%

Fc1ccc(-c2ccc3oc(N4CCN5CCC4CC5)nc3n2)cn1 [Compound I-10]
Ki (α7 nAChRs): 378 ± 119 nM

Nc1ccc2c(c1)C(=O)c1cc(N3CCN4CCC3CC4)ccc1-2 [II-5]
inhibition at 5 min, 0.4 µM (hERG potassium channel [1]): 19 ± 1% | inhibition at 5 min, 2 µM (hERG potassium channel [1]): 42 ± 1% | inhibition at 5 min, 10 µM (hERG potassium channel [1]): 79 ± 2% | inhibition at 5 min, 50 µM (hERG potassium channel [1]): 98% | IC50 (hERG potassium channel [2]; [7]): 2.5 ± 0.15 µM | IC50 (hERG potassium channel [2]; [8]): 2.5 ± 0.15 µM

O=C1c2cc(F)ccc2-c2ccc(N3CCN4CCC3CC4)cc21 [II-6]
IC50(hERG)/IC50(α7 nAChR) (hERG potassium channel [3]): 22 | inhibition at 5 min, 0.4 µM (hERG potassium channel [1]): 42 ± 2% | inhibition at 5 min, 2 µM (hERG potassium channel [1]): 80 ± 1% | inhibition at 5 min, 10 µM (hERG potassium channel [1]): 96 ± 1% | inhibition at 5 min, 50 µM (hERG potassium channel [1]): 100% | IC50 (hERG potassium channel [2]; [7]): 0.46 ± 0.055 µM | IC50 (hERG potassium channel [2]; [8]): 0.46 ± 0.055 µM

Nc1cccc2c1C(=O)c1cc(N3CCN4CCC3CC4)ccc1-2 [II-14]
inhibition at 5 min, 0.4 µM (hERG potassium channel [1]): 6 ± 1% | inhibition at 5 min, 2 µM (hERG potassium channel [1]): 20 ± 2% | inhibition at 5 min, 10 µM (hERG potassium channel [1]): 25 ± 3% | inhibition at 5 min, 50 µM (hERG potassium channel [1]): 53 ± 4% | IC50 (hERG potassium channel [2]; [7]): 49.7 ± 15.9 µM | IC50 (hERG potassium channel [2]; [8]): 49.7 ± 15.9 µM

O=C1c2cc(N3CCN4CCC3CC4)ccc2-c2cccc(F)c21 [II-15]
LD50 at 14 days ([4]; weighted probit method, read-out: half lethal dosage LD50): 53.7 mg/kg | LD50 at 14 days ([4]; read-out: 95% confidence limit of LD50): 50.4 to 57.2 mg/kg | Observation Record (Kunming mice; 43.74 mg/kg): Symptoms of convulsion, and trembling | Number of Death (Kunming mice; 43.74 mg/kg, 10 mice): 1 | Death Rate (%) (Kunming mice; 43.74 mg/kg, 14 days observation): 10% | Number of Death (Kunming mice; 48.6 mg/kg, 9 mice): 2 | Death Rate (%) (Kunming mice; 48.6 mg/kg, 14 days observation): 22% | Observation Record (Kunming mice; 54 mg/kg): Died after convulsion of 20 min; survivors | Number of Death (Kunming mice; 54 mg/kg, 10 mice): 6 | Death Rate (%) (Kunming mice; 54 mg/kg, 14 days observation): 60% | Observation Record (Kunming mice; 60 mg/kg): Died after convulsion of 6-10 min; survivors | Number of Death (Kunming mice; 60 mg/kg, 10 mice): 7 | Death Rate (%) (Kunming mice; 60 mg/kg, 14 days observation): 70% | Observation Record (Kunming mice; 64.8 mg/kg): Died after convulsion of about 10 s: survivors | Number of Death (Kunming mice; 64.8 mg/kg, 10 mice): 9 | Death Rate (%) (Kunming mice; 64.8 mg/kg, 14 days observation): 90% | weights of surviving mice in the observation period (Kunming mice; 14 days observation): increased normally | inappetence after the administration, then recovered to normal (Kunming mice; all administrated mice): ≤ 1 h | tissues and organs of dissected dead mice (Kunming mice; all dose groups): no abnormality was found | IC50(hERG)/IC50(α7 nAChR) (hERG potassium channel [3]): 74 | inhibition at 5 min, 0.4 µM (hERG potassium channel [1]): 45 ± 1% | inhibition at 5 min, 2 µM (hERG potassium channel [1]): 82 ± 1% | inhibition at 5 min, 10 µM (hERG potassium channel [1]): 97 ± 1% | inhibition at 5 min, 50 µM (hERG potassium channel [1]): 98 ± 1% | IC50 (hERG potassium channel [2]; [7]): 0.46 ± 0.011 µM | IC50 (hERG potassium channel [2]; [8]): 0.46 ± 0.011 µM

CN1CC2CN(c3ccc(-c4ccc5c(ccn5CCF)c4)nc3)CC2C1 (stereo not shown) [III-19]
Ki (α7 nAChRs): 456 ± 152 nM

CN1CC2CN(c3ccc(-c4ccc(OCCF)cc4)nn3)CC2C1 (stereo not shown) [III-24]
Ki (α7 nAChRs): 445 ± 31.5 nM

O=S1(=O)c2cc(N3CCN4CCC3CC4)ccc2-c2cccc([18F])c21 [[^18F] ASEM]
highest brain uptake value (reported) [5]: 7.5 % ID/g | uptake value in corpus striatum (reported) ([6]; corpus striatum): 6.0 % ID/g | uptake value in cortex (reported) ([6]; cortex): 7.2 % ID/g | uptake value in hippocampus (reported) ([6]; hippocampus): 5.0 % ID/g

— patent US20200147243A1, “LIGAND COMPOUND OF ALPHA7 NICOTINIC ACETYLCHOLINE RECEPTOR AND APPLICATION THEREOF” (BEIJING NORMAL UNIVERSITY, priority 2017, published 2020)
